# Reference: PubChem BioAssay AID504470 (NMMLSC, 2011)
# Calls of active or inactive are those of the source.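 Rule for the calls: active = EC50, the half-effect concentration on GFP expression, at most 33 µM; inactive = the rest.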
# Tested on: not listed separately
# Assay: TOR pathway RPL19A-GFP reporter modulators – cell-based, KU SAR set 2, kMESF flow cytometry, multiplex, SAR follow-up (AID 504470)
# Conditions: S. cerevisiae RPL19A-GFP strain, flow cytometry fluorescence, 3 h; at 100 µM (top of the series)
row,SMILES,GFP fluorescence (kMESF)
1,CNc1nc(N)c([N+](=O)[O-])c(Nc2cccc(Br)c2)n1,24% (inactive)
2,CCNc1nc(N)c([N+](=O)[O-])c(Nc2cccc(Cl)c2)n1,18.9% (inactive)
3,CNc1nc(N)c([N+](=O)[O-])c(Nc2cccc(OC)c2)n1,22.9% (inactive)
4,CNc1nc(N)c([N+](=O)[O-])c(Nc2ccccc2Br)n1,23.4% (inactive)
5,CNc1nc(N)c([N+](=O)[O-])c(Nc2cccc(Oc3ccccc3)c2)n1,23% (inactive)
6,CNc1nc(NC2CCCCC2)c([N+](=O)[O-])c(N2CCOCC2)n1,21.9% (inactive)
7,CNc1nc(NC)c([N+](=O)[O-])c(Nc2cccc(Cl)c2)n1,23.3% (inactive)
8,CNc1nc(N)c([N+](=O)[O-])c(Nc2ccccc2F)n1,24.8% (inactive)

# Same assay, conditions: S. cerevisiae RPL19A-GFP strain, flow cytometry fluorescence, 3 h; at 300 µM (top of the series)
row,SMILES,GFP fluorescence (kMESF)
1,CNc1nc(N)cc(Nc2ccccc2F)n1,32% (inactive)
2,CCOC(=O)c1c(N)nc(NC)nc1Nc1cccc(F)c1,29.8% (inactive)
3,CNc1nc(N)cc(Oc2cccc(Cl)c2)n1,32.2% (inactive)
4,COc1ccccc1-c1cc(Nc2cc(C)[nH]n2)nc(NCc2ccccc2)n1,30% (inactive)
5,O=[N+]([O-])c1c(NC2CCCCC2)nc(NCc2ccccc2)nc1N1CCOCC1,29.5% (inactive)
6,Cc1cc(Nc2cc(-c3ccccc3)nc(NCc3ccccc3)n2)n[nH]1,31.4% (inactive)
7,COc1cccc(-c2cc(Nc3cc(C)[nH]n3)nc(NCc3ccccc3)n2)c1,32.4% (inactive)
8,COC(=O)c1cccc(-c2cc(Nc3cc(C)[nH]n3)nc(NCc3ccccc3)n2)c1,32.9% (inactive)
9,Cc1cc(Nc2cc(Nc3ccccc3)nc(NCc3ccccc3)n2)n[nH]1,30% (inactive)

# Tested on: S. cerevisiae RPL19A-GFP strain, flow cytometry fluorescence, 3 h
# Assay: as above
# Conditions: not given
row,EC50,SMILES
1,69.1 µM (inactive),CNc1nc(N)cc(Nc2cccc(Cl)c2)n1
2,70.5 µM (inactive),CCNc1nc(NC2CCCCC2)c([N+](=O)[O-])c(N2CCOCC2)n1
3,125 µM (inactive),CNc1nc(N)c(C(=O)c2ccc(C)c(C)c2)c(Nc2cccc(Cl)c2)n1
